The target in test [1] is T1, Tyrosine-protein kinase JAK1 (Homo sapiens, UniProt P23458). The test is described as follows: Inhibition of JAK1 in human NCI-H1975 cells assessed as reduction in STAT3 phosphorylation incubated for 2 hrs. In kind it is cell-based.
Test [2] concerns the target T1, Tyrosine-protein kinase JAK1. The test is described as follows: Inhibition of N-terminal GST fused human recombinant JAK1 (866 to 1154 amino acids) expressed in insect cells using ATP and peptide substrate (FITC-C6-KKHTDDGYMPMSPGVA-NH2.
Test [3] deals with T2, Tyrosine-protein kinase JAK3 (Homo sapiens, UniProt P52333).
T2 sequence (P52333 whole entry): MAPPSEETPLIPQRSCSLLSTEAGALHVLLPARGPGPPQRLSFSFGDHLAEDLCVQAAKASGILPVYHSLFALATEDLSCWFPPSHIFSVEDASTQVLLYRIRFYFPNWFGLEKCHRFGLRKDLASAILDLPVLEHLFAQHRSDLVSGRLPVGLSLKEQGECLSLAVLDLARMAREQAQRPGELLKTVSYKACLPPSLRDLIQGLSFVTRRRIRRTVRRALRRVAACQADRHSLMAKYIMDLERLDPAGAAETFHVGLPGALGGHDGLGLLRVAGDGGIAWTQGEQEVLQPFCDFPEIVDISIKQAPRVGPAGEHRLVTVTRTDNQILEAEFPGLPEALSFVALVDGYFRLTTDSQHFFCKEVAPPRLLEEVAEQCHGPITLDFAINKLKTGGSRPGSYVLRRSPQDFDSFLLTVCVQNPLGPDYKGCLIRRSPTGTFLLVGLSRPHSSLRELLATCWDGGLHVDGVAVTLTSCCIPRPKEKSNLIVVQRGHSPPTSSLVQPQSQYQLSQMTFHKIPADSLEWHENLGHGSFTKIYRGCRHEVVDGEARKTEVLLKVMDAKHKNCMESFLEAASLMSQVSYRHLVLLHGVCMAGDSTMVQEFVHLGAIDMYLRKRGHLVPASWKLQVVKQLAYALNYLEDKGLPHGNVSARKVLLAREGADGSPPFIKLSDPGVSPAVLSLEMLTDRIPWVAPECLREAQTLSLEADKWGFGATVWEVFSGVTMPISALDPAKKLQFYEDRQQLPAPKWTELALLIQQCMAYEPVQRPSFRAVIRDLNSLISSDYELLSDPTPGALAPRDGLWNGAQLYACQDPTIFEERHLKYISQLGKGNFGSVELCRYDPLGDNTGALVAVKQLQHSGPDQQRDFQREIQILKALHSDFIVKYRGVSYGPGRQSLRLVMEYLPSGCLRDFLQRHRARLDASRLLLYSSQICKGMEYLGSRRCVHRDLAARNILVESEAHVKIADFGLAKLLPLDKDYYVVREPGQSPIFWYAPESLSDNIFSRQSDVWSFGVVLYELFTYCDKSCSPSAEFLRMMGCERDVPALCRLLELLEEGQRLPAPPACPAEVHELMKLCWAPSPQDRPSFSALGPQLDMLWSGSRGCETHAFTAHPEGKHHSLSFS
The test is described as follows: Inhibition of N-terminal GST fused recombinant JAK3 (781 to 1124 amino acids) (unknown origin) expressed in insect cells using ATP and peptide substrate (5FAM-GEEPLYWSFPAKKK-NH2.

SMILES strings stand for the structures. A value given as a limit tells only on which side of the number the result lay.

T1 sequence (P23458 whole entry, the tested form may be a part): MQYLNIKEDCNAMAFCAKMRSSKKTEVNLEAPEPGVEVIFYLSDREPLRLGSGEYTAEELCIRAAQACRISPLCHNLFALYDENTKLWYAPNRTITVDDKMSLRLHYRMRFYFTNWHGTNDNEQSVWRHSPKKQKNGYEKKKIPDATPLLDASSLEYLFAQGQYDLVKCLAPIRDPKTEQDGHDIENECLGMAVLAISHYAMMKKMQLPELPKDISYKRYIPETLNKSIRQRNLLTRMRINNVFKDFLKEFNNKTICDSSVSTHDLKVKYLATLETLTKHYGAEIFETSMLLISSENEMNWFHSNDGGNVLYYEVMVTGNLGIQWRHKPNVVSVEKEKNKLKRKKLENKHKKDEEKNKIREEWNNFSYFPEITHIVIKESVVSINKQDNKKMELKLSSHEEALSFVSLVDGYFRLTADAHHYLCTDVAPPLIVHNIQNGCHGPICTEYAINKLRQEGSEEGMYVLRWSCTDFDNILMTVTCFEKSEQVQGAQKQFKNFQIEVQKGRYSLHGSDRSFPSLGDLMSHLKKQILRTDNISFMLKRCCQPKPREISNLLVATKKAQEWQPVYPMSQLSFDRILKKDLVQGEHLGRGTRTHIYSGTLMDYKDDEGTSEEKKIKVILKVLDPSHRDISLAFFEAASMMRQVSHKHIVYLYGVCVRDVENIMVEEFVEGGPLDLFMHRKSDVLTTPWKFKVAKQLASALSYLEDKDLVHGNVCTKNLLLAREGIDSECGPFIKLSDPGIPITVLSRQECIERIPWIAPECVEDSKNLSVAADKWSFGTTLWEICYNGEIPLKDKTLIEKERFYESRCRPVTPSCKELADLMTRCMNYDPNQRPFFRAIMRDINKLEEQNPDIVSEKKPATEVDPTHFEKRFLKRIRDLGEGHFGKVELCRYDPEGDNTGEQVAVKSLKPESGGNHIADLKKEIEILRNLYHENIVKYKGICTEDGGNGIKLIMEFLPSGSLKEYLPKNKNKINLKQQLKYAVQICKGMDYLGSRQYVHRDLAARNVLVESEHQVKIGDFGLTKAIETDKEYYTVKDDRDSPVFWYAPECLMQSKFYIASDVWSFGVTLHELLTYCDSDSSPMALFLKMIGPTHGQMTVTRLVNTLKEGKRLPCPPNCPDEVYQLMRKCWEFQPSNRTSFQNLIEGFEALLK

One may read the IC50 as the point on the concentration scale where inhibition reaches its midpoint. On to `COc1nn(C)cc1Nc1ncc(Cl)c(-c2c[nH]c3c(NC(=O)[C@@H](C)N4CCN(C)CC4)cccc23)n1`, for which, in test [1], the IC50 is 57.9 nM.
On the same count and under the same terms, under `CCOc1nn(C)cc1Nc1ncc(F)c(-c2c[nH]c3c(NC(=O)[C@H](C)N4CCN(C)C[C@@H]4C)cccc23)n1` stands more than 3000 nM.
For `CC[C@H](C(=O)Nc1cccc2c(-c3nc(Nc4cn(C)nc4C)ncc3F)c[nH]c12)N1CCN(C)CC1`, the IC50 in test [2] is less than 4 nM; in test [3] it was more than 30000 nM; in test [1] it was 75.1 nM.
With `COc1nn(C)cc1Nc1nccc(-c2c[nH]c3c(NC(=O)[C@@H](C)N4CCN(C)C[C@@H]4C)cccc23)n1`, the IC50 in test [1] is 643 nM.
On to `CCOc1nn(C)cc1Nc1ncc(C)c(-c2c[nH]c3c(NC(=O)[C@@H](CC)N4CCN(C)CC4)cccc23)n1`, for which the figures for the IC50 in test [2], in test [3] and in test [1] were less than 6 nM, more than 30000 nM and 104 nM, respectively.
Consider `COC[C@H](C(=O)Nc1cccc2c(-c3nc(Nc4cn(C)nc4C)ncc3F)c[nH]c12)N1CCN(C)CC1`, for which the IC50 was less than 3 nM in test [2], more than 30000 nM in test [3] and 56.6 nM in test [1].
